Reference: BindingDB's records for PubMed 37639823 (Shenyang Pharmaceutical University)

Assay: Inhibition of NLRP3 inflammasome in mouse BMDMs assessed as reduction in pyroptosis activity preincubated with LPS for 4 hrs followed by compound addition for 30 mins prior to nigericin addition and measured after 1 hr by ELISA

Compound | IC50 [nM]
COc1c(O)cc2c(c1C)C(=O)C=C1[C@@]2(C)CC[C@@]2(C)[C@@H]3C[C@@H](C)C(=O)[C@@H](O)[C@]3(C)CC[C@]12C | 2210
CC1=C(O)C(=O)C=C2C1=CC=C1[C@@]2(C)[C@@H](Br)C[C@@]2(C)[C@@H]3C[C@@H](C)C(=O)C[C@]3(C)CC[C@]12C | 130
